Data as given in US8952010B2, “Amino group-containing pyrrolidinone derivative” (Daiichi Sankyo Company, Limited, priority 2011, dated 2015).
Values after ≈ are worked out from the molar mass of the structure shown.

Test system: MRSA DB00026
Experiment: Measurement of antibacterial activity (MIC), standard methods of the Japanese Society of Chemotherapy
Type: cell-based, methicillin-resistant Staphylococcus aureus
Conditions: Staphylococcus aureus; bacteria: MRSA DB00026
Description: The measurement method of antibacterial activity of the compound of the present invention was carried out in accordance with the standard methods specified by the Japanese Society of Chemotherapy, and the results are shown in MIC (μg/mL) (Table 1).

| SMILES | MIC [µg/mL] |
| --- | --- |
| COc1ccc2ncc(=O)n(CCCCNC3CC(=O)N(c4ccc5c(c4)NC(=O)CO5)C3)c2c1 (stereo not shown) [Example 1, 6-(4-{[4-(7-Methoxy-2-oxoquinoxalin-1(2H)-yl)butyl]amino}-2-oxopyrrolidin-1-yl)-2H-1,4-benzoxazin-3(4H)-one] | 0.12 (≈ 0.251 µM) |
| COc1ccc2ncc(=O)n(CCCNC3CC(=O)N(c4ccc5c(c4)NC(=O)CO5)C3)c2c1 (stereo not shown) [Example 2, 6-(4-{[3-(7-Methoxy-2-oxoquinoxalin-1(2H)-yl)propyl]amino}-2-oxopyrrolidin-1-yl)-2H-1,4-benzoxazin-3(4H)-one] | ≤ 0.06 |
| COc1ccc2ncc(=O)n(CCCCNC3CC(=O)N(c4ccc5c(c4)NC(=O)CO5)C3)c2n1 (stereo not shown) [Example 15, 6-Methoxy-4-(4-{[5-oxo-1-(3-oxo-3,4-dihydro-2H-1,4-benzoxazin-6-yl)pyrrolidin-3-yl]amino}butyl)pyrido[2,3-b]pyrazin-3(4H)-one] | ≤ 0.06 |
| COc1ccc2ncc(=O)n(CCNC[C@H]3CC(=O)N(c4ccc5c(c4)NC(=O)CO5)C3)c2c1 [Example 16, 6-[(4R)-4-({[2-(7-Methoxy-2-oxoquinoxalin-1(2H)-yl)ethyl]amino}methyl)-2-oxopyrrolidin-1-yl]-2H-1,4-benzoxazin-3(4H)-one] | ≤ 0.06 |
| COc1ccc2ncc(=O)n(CCNC[C@H]3CC(=O)N(c4ccc5c(n4)NC(=O)CO5)C3)c2c1 [Example 19, 6-[(4R)-4-({[2-(7-Methoxy-2-oxoquinoxalin-1(2H)-yl)ethyl]amino}methyl)-2-oxopyrrolidin-1-yl]-2H-pyrido[3,2-b][1,4]oxazin-3(4H)-one] | ≤ 0.06 |
| COc1ccc2ncc(=O)n(CC(O)CNC[C@H]3CC(=O)N(c4ccc5c(n4)NC(=O)CO5)C3)c2n1 (stereo partly drawn) [Example 22, 6-[(4R)-4-({[2-Hydroxy-3-(6-methoxy-3-oxopyrido[2,3-b]pyrazin-4(3H)-yl)propyl]amino}methyl)-2-oxopyrrolidin-1-yl)-2H-pyrido[3,2-b][1,4]oxazin-3(4H)-one] | 0.25 (≈ 0.505 µM) |
| COc1ccc2ncc(=O)n(CC(F)CNC[C@H]3CC(=O)N(c4ccc5c(c4)NC(=O)CO5)C3)c2n1 (stereo partly shown) [Example 23] | ≤ 0.06 |
